From patent publication US20090325954A1, “2-BENZIMIDAZOLYL-6-MORPHOLINO-4-PHENYLPYRIMIDINE DERIVATIVES AS PI3K AND MTOR INHIBITORS FOR THE TREATMENT OF PROLIFERATIVE DISORDERS” (priority 2006, published 2009)

Tests used:
[1] = test system: phosphorylation of Serine 473 in Akt; assay: In vitro phospho-Ser473 Akt assay in MDA-MB-468 cells, Test (c); format: cell-based; details: Homo sapiens, read-out: IC50, inhibition of phosphorylation of Serine 473 in Akt
Description: This assay determines the ability of test compounds to inhibit phosphorylation of Serine 473 in Akt as assessed using Acumen Explorer technology (TTP LabTech Limited, Royston, Herts, SG8 6EE, UK), a plate reader that can be used to rapidly quantitate features of images generated by laser-scanning.
A MDA-MB-468 human breast adenocarcinoma cell line (LGC Promochem, Teddington, Middlesex, UK, Catalogue No. HTB-132) was routinely maintained at 37° C. with 5% CO2 up to a confluency of 70-90% in DMEM containing 10% FCS and 1% L-glutamine.
For the assay, the cells were detached from the culture flask using ‘Accutase’ (Innovative Cell Technologies Inc., San Diego, Calif., USA; Catalogue No. AT104) using standard tissue culture methods and resuspended in media to give 5.5×10^4 cells per ml. Aliquots (90 μl) were seeded into each of the inner 60 wells of a black ‘Costar’ 96-well plate (Corning Inc., NY, USA; Catalogue No. 3904) to give a density of ˜5000 cells per well. Aliquots (90 μl) of culture media were placed in the outer wells to prevent edge effects. [An alternative cell handling procedure involved the maintenance of the cells in a ‘SelecT’ robotic device (The Automation Partnership, Royston, Herts SG8 5WY, UK). Cells were resuspended in media to give 5×10^4 cells per ml. Aliquots (100 μl) were seeded into the wells of a black ‘Costar’ 96-well plate.] […]

p110α Type Ia human PI3K = target: T1, p110α Type Ia human PI3K (Homo sapiens, UniProt P42336); assay: In vitro PI3K enzyme assay (AlphaScreen), Test (a); format: biochemical; details: read-out: IC50 versus p110α Type Ia human PI3K
T1 construct: full length DNA of each of the p110α, p110β and […] Type Ia human PI3K p110 isoforms; 6-His; made in house
T1 sequence (P42336 whole entry, canonical isoform): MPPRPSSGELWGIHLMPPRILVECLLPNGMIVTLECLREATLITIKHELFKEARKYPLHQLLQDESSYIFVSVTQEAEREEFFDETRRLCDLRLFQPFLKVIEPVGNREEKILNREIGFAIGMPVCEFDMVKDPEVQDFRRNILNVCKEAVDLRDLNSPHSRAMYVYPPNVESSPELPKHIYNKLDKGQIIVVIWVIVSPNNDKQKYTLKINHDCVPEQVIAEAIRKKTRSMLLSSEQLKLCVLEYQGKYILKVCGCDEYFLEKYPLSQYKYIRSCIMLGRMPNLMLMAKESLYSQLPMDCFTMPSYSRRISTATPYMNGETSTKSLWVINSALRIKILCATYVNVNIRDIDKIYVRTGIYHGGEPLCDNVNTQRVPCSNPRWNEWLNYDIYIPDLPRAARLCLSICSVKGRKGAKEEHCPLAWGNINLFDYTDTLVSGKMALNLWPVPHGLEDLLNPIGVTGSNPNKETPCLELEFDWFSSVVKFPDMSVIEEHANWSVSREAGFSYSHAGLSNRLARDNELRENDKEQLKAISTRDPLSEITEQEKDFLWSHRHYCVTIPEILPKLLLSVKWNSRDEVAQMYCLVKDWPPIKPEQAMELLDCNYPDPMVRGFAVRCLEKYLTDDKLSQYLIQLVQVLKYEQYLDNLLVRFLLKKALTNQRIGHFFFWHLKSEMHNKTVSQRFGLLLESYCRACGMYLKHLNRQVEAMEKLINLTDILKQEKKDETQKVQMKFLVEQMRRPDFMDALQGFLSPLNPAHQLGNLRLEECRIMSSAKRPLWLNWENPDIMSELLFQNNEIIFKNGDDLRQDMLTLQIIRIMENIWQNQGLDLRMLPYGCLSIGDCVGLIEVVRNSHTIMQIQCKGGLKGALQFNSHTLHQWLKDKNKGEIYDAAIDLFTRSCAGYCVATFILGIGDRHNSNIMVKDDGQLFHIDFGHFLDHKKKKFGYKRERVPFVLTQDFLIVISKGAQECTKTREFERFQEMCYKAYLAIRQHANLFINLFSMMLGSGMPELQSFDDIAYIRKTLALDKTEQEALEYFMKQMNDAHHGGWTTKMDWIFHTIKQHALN
T1 sequence (P27986 whole entry partner, canonical isoform): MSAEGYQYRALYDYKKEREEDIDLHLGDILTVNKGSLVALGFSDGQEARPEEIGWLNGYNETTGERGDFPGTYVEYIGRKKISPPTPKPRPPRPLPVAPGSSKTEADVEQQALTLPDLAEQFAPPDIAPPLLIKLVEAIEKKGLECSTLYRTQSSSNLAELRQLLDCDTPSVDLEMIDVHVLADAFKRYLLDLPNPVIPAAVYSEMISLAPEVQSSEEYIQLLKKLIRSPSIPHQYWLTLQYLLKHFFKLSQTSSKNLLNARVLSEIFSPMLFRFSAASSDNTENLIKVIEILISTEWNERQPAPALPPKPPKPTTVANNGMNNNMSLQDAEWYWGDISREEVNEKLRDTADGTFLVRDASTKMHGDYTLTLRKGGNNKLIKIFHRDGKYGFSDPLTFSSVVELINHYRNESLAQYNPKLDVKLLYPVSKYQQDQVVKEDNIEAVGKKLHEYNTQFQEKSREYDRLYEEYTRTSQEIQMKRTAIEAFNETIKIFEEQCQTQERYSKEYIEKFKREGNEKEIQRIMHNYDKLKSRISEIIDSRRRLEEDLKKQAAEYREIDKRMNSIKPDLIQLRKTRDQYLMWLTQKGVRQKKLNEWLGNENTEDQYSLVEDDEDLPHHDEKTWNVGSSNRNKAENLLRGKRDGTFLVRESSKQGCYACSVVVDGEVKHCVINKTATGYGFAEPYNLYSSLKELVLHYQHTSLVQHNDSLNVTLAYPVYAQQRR
Excerpt: The assay used AlphaScreen technology (Gray et al., Analytical Biochemistry, 2003, 313: 234-245) to determine the ability of test compounds to inhibit phosphorylation by recombinant Type I PI3K enzymes of the lipid PI(4,5)P2.
DNA fragments encoding human PI3K catalytic and regulatory subunits were isolated from cDNA libraries using standard molecular biology and PCR cloning techniques. The selected DNA fragments were used to generate baculovirus expression vectors. In particular, full length DNA of each of the p110α, p110β and […] Type Ia human PI3K p110 isoforms (EMBL Accession Nos. HSU79143, S67334, Y10055 for p110a, p110β and p110δ respectively) were sub-cloned into a pDEST10 vector (Invitrogen Limited, Fountain Drive, Paisley, UK). The vector is a Gateway-adapted version of Fastbac1 containing a 6-His epitope tag. […]
Biotinylated-DiC8-PI(3,4,5)P3 (50 nM; Cell Signals Inc., Catalogue No. 107), recombinant purified GST-Grp1 PH protein (2.5 nM) and AlphaScreen Anti-GST donor and acceptor beads (100 ng; Packard Bioscience Limited, Station Road, Pangbourne, Berkshire, UK, Catalogue No. 6760603M) were added and the assay plates were left for about 5 to 20 hours at room temperature in the dark. The resultant signals arising from laser light excitation at […] were read using a Packard AlphaQuest instrument. […]

Row | SMILES | IC50 [1] | IC50 (p110α Type Ia human PI3K)
1 | CNCC(=O)Nc1ccc(-c2cc(N3CCOCC3)nc(-n3c(C(F)F)nc4ccccc43)n2)cc1 [Example 5, 2-(2-difluoromethylbenzimidazol-1-yl)-6-morpholino-4-(4-sarcosylaminophenyl)pyrimidine] | ~20 nM | ~300 nM
2 | CN(C)CCNC(=O)c1ccc(-c2cc(N3CCOCC3)nc(-n3c(C(F)F)nc4ccccc43)n2)cc1 [Example 9, 2-(2-difluoromethylbenzimidazol-1-yl)-4-{4-[N-(2-dimethylaminoethyl)carbamoyl]phenyl}-6-morpholinopyrimidine] | ~100 nM | ~300 nM
